Measurements as given in ChEMBL document CHEMBL1201862, “PubChem BioAssay data set” (2004).
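Results reflect a 48-hour exposure of cells in 96-well plates to compound at five concentrations. GI50 = concentration required for 50% inhibition of growth.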 Activity calls are given as the source filed them. Rule as the data show it: active = GI50 up to about 1.1 µM and inactive = higher.

Legend:
Assay in all cases: DTP human tumour cell line panel, 48 h
KM12 = test system: KM12
TK-10 = test system: TK-10
SF-295 = test system: SF-295
SN12C = test system: SN12C
UACC-62 = test system: UACC-62
A498 = test system: A498
SW-620 = test system: SW-620
MCF7 = test system: MCF7
Malme-3M = test system: Malme-3M
MDA-MB-231 = test system: MDA-MB-231
Hs-578T = test system: Hs-578T
MDA-MB-435 = test system: MDA-MB-435
HL-60 = test system: HL-60
OVCAR-8 = test system: OVCAR-8
UACC-257 = test system: UACC-257
CAKI-1 = test system: CAKI-1
RXF 393 = test system: RXF 393
NCI-H460 = test system: NCI-H460
K562 = test system: K562
SNB-75 = test system: SNB-75

Row | SMILES | GI50 (KM12) | GI50 (TK-10) | GI50 (SF-295) | GI50 (SN12C) | GI50 (UACC-62) | GI50 (A498) | GI50 (SW-620) | GI50 (MCF7) | GI50 (Malme-3M) | GI50 (MDA-MB-231) | GI50 (Hs-578T) | GI50 (MDA-MB-435) | GI50 (HL-60) | GI50 (OVCAR-8) | GI50 (UACC-257) | GI50 (CAKI-1) | GI50 (RXF 393) | GI50 (NCI-H460) | GI50 (K562) | GI50 (SNB-75)
1 | O=S1(=O)N=C(SCc2ccccc2)N(c2ccccc2)c2ccncc21 | 41 µM (inactive) | 35.7 µM (inactive) | 34 µM (inactive) | 42.2 µM (inactive) | 44.4 µM (inactive) | 17.1 µM (inactive) | 56 µM (inactive) | 31.2 µM (inactive) | 49.5 µM (inactive) | 68.2 µM (inactive) | 31.7 µM (inactive) | 41.5 µM (inactive) | 29.6 µM (inactive) | 47.3 µM (inactive) | 31.3 µM (inactive) | 39.2 µM (inactive) | 26.6 µM (inactive) | 28.8 µM (inactive) | 29.9 µM (inactive) | 24.7 µM (inactive)
2 | CC(=O)NC1COC(COC(=O)CCCCCCCCCCNC(=O)c2ccc([N+](=O)[O-])c3c(=O)c4ccccc4[nH]c23)C(O)C1OC(C)C(=O)NC(C(=O)NC(CCC(N)=O)C(=O)OCc1ccccc1)C(C)C (stereo not given) | 4.85 µM (inactive) | 18.5 µM (inactive) | 22 µM (inactive) | 32.6 µM (inactive) | 25.2 µM (inactive) | 28.8 µM (inactive) | 26.6 µM (inactive) | 6.61 µM (inactive) | 38.6 µM (inactive) | 38.8 µM (inactive) | 6.35 µM (inactive) | 36.8 µM (inactive) | 0.445 µM (active) | 12.6 µM (inactive) | 15.3 µM (inactive) | 15.2 µM (inactive) | 4.02 µM (inactive) | 16.9 µM (inactive) | 9.48 µM (inactive) | 14.4 µM (inactive)
3 | Cc1c2ccc3ccccc3c2c[n+]2ccccc12 | 1.13 µM (inactive) | 35.7 µM (inactive) | 5.89 µM (inactive) | 2.94 µM (inactive) | 13.6 µM (inactive) | > 47.5 µM (inactive) | 4.2 µM (inactive) | 10.4 µM (inactive) | 1.56 µM (inactive) | 21.4 µM (inactive) | 2.26 µM (inactive) | 12.6 µM (inactive) | 33.4 µM (inactive) | 4.5 µM (inactive) | 7.62 µM (inactive) | 53.6 µM (inactive) | 22.3 µM (inactive) | 10.7 µM (inactive) | 10.7 µM (inactive) | 6.41 µM (inactive)
4 | Cc1ccc([N+](=O)[O-])cc1S(=O)(=O)Nc1ccc(C2=NOC(c3ccco3)C2)cc1 (stereo not given) | 11.8 µM (inactive) | 31.2 µM (inactive) | 14.1 µM (inactive) | 21.9 µM (inactive) | 11.7 µM (inactive) | 15.1 µM (inactive) | 18.7 µM (inactive) | 11.6 µM (inactive) | 16.6 µM (inactive) | 17.1 µM (inactive) | 29.8 µM (inactive) | 3.03 µM (inactive) | 21.3 µM (inactive) | 39.2 µM (inactive) | 17.6 µM (inactive) | 22.8 µM (inactive) | 8.73 µM (inactive) | 18.5 µM (inactive) | 4.7 µM (inactive) | 18.7 µM (inactive)
5 | CCCCCCCCCCCCCCCCC1=CC(=O)C=C(OC)C1=O | 69.2 µM (inactive) | > 100 µM (inactive) | > 100 µM (inactive) | 44 µM (inactive) | 34.7 µM (inactive) | 48.5 µM (inactive) | > 100 µM (inactive) | > 100 µM (inactive) | > 100 µM (inactive) | > 100 µM (inactive) | 37.6 µM (inactive) | > 100 µM (inactive) | > 100 µM (inactive) | 49.3 µM (inactive) | > 100 µM (inactive) | > 100 µM (inactive) | 37 µM (inactive) | 34.4 µM (inactive) | 47.4 µM (inactive) | > 100 µM (inactive)
